Source: PubChem BioAssay (NCI)
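96-well plates; 48 h exposure; 5 concentrations. Endpoints by linear interpolation between flanking doses. Not reached: highest tested concentration assigned. Here, GI50 denotes the concentration required for 50% inhibition of growth. TGI: total growth inhibition.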

Key:
Assay in all cases: NCI-60 cell line screen, 48 h
[1] = system: 786-0 renal
[2] = system: A498 renal
[3] = system: A549 NSCLC
[4] = system: ACHN renal
[5] = system: BT-549 breast
[6] = system: CAKI-1 renal
[7] = system: CCRF-CEM leukemia
[8] = system: COLO 205 colon
[9] = system: DU-145 prostate
[10] = system: EKVX NSCLC
[11] = system: HCC-2998 colon
[12] = system: HCT-116 colon
[13] = system: HCT-15 colon
[14] = system: HL-60(TB) leukemia
[15] = system: HOP-62 NSCLC
[16] = system: HOP-92 NSCLC
[17] = system: HS 578T breast
[18] = system: HT29 colon
[19] = system: IGROV1 ovarian
[20] = system: K-562 leukemia
[21] = system: KM12 colon
[22] = system: LOX IMVI melanoma
[23] = system: M14 melanoma
[24] = system: MALME-3M melanoma
[25] = system: MCF7 breast
[26] = system: MDA-MB-231 breast
[27] = system: MDA-MB-435
[28] = system: MOLT-4 leukemia

Structure (SMILES): CNCCNc1nc2ccccc2c2c(=O)c3cccc(C)c3sc12
- GI50 [1]: 4070 nM
- TGI [1]: 11500 nM
- GI50 [2]: 1070 nM
- TGI [2]: 3940 nM
- GI50 [3]: 1820 nM
- TGI [3]: 7500 nM
- GI50 [4]: 1700 nM
- TGI [4]: 7110 nM
- GI50 [5]: 5340 nM
- TGI [5]: 12100 nM
- GI50 [6]: 1160 nM
- TGI [6]: 6730 nM
- GI50 [7]: 1280 nM
- TGI [7]: 3850 nM
- GI50 [8]: 921 nM
- TGI [8]: 1920 nM
- GI50 [9]: 1890 nM
- TGI [9]: 6520 nM
- GI50 [10]: 2730 nM
- TGI [10]: 9870 nM
- GI50 [11]: 824 nM
- TGI [11]: 1650 nM
- GI50 [12]: 818 nM
- TGI [12]: 1570 nM
- GI50 [13]: 1130 nM
- TGI [13]: 2670 nM
- GI50 [14]: 1060 nM
- TGI [14]: 2200 nM
- GI50 [15]: 1360 nM
- TGI [15]: 8810 nM
- GI50 [16]: 1690 nM
- TGI [16]: 10800 nM
- GI50 [17]: 5070 nM
- TGI [17]: 14200 nM
- GI50 [18]: 887 nM
- TGI [18]: 1920 nM
- GI50 [19]: 1290 nM
- TGI [19]: 8060 nM
- GI50 [20]: 1040 nM
- TGI [20]: 2330 nM
- GI50 [21]: 1110 nM
- TGI [21]: 2880 nM
- GI50 [22]: 791 nM
- TGI [22]: 1490 nM
- GI50 [23]: 853 nM
- TGI [23]: 1700 nM
- GI50 [24]: 5160 nM
- TGI [24]: 11700 nM
- GI50 [25]: 793 nM
- TGI [25]: 1820 nM
- GI50 [26]: 1020 nM
- TGI [26]: 3610 nM
- GI50 [27]: 1050 nM
- TGI [27]: 2220 nM
- GI50 [28]: 1280 nM
